Measured values as given in patent publication US7166299B2, “Preparation of aqueous clear solution dosage forms with bile acids” (priority 1998, dated 2007).
Values joined by “and” are separate entries in the source; they are usually repeats but may differ in a detail not shown here. Equal values may be shown once.

Experiment: Solution stability test (HPLC) of UDCA, branched chained amino acids and maltodextrin solution, Example IV
Format: physicochemical
Description: The stability tests were conducted on three different aqueous solution systems: […]. A bile acid and a high molecular weight aqueous soluble starch conversion product were combined in aqueous solution according to Example I, with results as shown in Tables 1A and 1B. • 2. Mixed bile acids and high molecular weight aqueous soluble starch conversion products were combined in aqueous solution according to Example II, with results as shown in Table 2. • 3. Bile acids, high molecular weight aqueous soluble starch conversion products and branched chained amino acids (e.g. leucine, isoleucine, valine, or other amino acid with a branched side chain) were combined in aqueous solution according to Example IV, with results as shown in Tables 3A through 3F. The stability tests were performed with HPLC and microscope light at various pH conditions under the normal and accelerated conditions. Accelerated conditions for testing pharmaceutical compositions have been described (Remington, The Science and Practice of Pharmacy, 19th ed., p. 640). […] Thus, the formulations of the examples are suitable for preparing a commercial liquid dosage form. […] Some formulations remain stable for over 2 years. Moreover, the solution stability tests were conducted on the aqueous solution dosage forms comprising the mixture of aqueous soluble UDCA, branched chained amino acid (leucine, isoleucine, valine) and maltodextrin according to example IV as a typical example of the solution dosage forms in which bile acid as a therapeutically active agent, as an adjuvant or carrier, pharmaceutically active agent, or enhancer of solubility, and high molecular weight aqueous soluble starch conversion products or soluble non-starch polysaccharides are dissolved. According to the test results, there is no discoloration, no clarity changes, and no precipitation. […] In the tables, the concentration of the indicated bile acid salt for each of the three numbered trials and the average thereof is reported on each line. The percentage indicates the relative concentration of the bile acid salt after incubation for a certain amount of time in comparison with the initial concentration. 85 mL of the aqueous solution in which soluble UDCA is dissolved was prepared, and then maltodextrin was added into the clear solution. Into the resulting clear solution, branched amino acids were added with adjusting the pH (4–7) with agitation and then sweetener, preservatives, and flavoring agent were added. Purified water was added to adjust the total volume to be 100 mL. Tables 3A to 3F show stability test results over time of formulation prepared with amino acids according to Example IV. All stability tests were conducted at 50° C. Stability test results at pH 1 (Table 3A), pH 3 (Table 3B), pH 5 (Table 3C), pH 7 (Table 3D), pH 9 (Table 3E), and pH 10 (Table 3F) are shown.

SMILES: CC(C)[C@H](N)C(=O)O [Val, valine]
- Percentage of day 0 concentration (Table 3A: pH1, 50° C., day 0): 100.0%
- concentration by HPLC, Average (Table 3A: pH1, 50° C., day 0): 0.471
- concentration by HPLC, trials #1-#3 (Table 3A: pH1, 50° C., day 0): 0.506 and 0.448 and 0.460
- Percentage of day 0 concentration (Table 3A: pH1, 50° C., day 1): 96.7%
- concentration by HPLC, Average (Table 3A: pH1, 50° C., day 1): 0.456
- concentration by HPLC, trials #1-#3 (Table 3A: pH1, 50° C., day 1): 0.438 and 0.458 and 0.471
- Percentage of day 0 concentration (Table 3A: pH1, 50° C., day 2): 104.5%
- concentration by HPLC, Average (Table 3A: pH1, 50° C., day 2): 0.492
- concentration by HPLC, trials #1-#3 (Table 3A: pH1, 50° C., day 2): 0.479 and 0.485 and 0.513
- Percentage of day 0 concentration (Table 3A: pH1, 50° C., day 6): 112.4%
- concentration by HPLC, Average (Table 3A: pH1, 50° C., day 6): 0.530
- concentration by HPLC, trials #1-#3 (Table 3A: pH1, 50° C., day 6): 0.505 and 0.536 and 0.549
- Percentage of day 0 concentration (Table 3A: pH1, 50° C., day 7): 102.9%
- concentration by HPLC, Average (Table 3A: pH1, 50° C., day 7): 0.485
- concentration by HPLC, trials #1-#3 (Table 3A: pH1, 50° C., day 7): 0.494 and 0.465 and 0.496
- Percentage of day 0 concentration (Table 3A: pH1, 50° C., day 8): 101.7%
- concentration by HPLC, Average (Table 3A: pH1, 50° C., day 8): 0.479
- concentration by HPLC, trials #1-#3 (Table 3A: pH1, 50° C., day 8): 0.488 and 0.491 and 0.459
- Percentage of day 0 concentration (Table 3A: pH1, 50° C., day 9): 103.6%
- concentration by HPLC, Average (Table 3A: pH1, 50° C., day 9): 0.488
- concentration by HPLC, trials #1-#3 (Table 3A: pH1, 50° C., day 9): 0.479 and 0.496 and 0.490
- Percentage of day 0 concentration (Table 3B: pH 3, 50° C., day 0): 100.0%
- concentration by HPLC, Average (Table 3B: pH 3, 50° C., day 0): 0.491
- concentration by HPLC, trials #1-#3 (Table 3B: pH 3, 50° C., day 0): 0.485 and 0.491 and 0.498
- Percentage of day 0 concentration (Table 3B: pH 3, 50° C., day 1): 94.6%
- concentration by HPLC, Average (Table 3B: pH 3, 50° C., day 1): 0.465
- concentration by HPLC, trials #1-#3 (Table 3B: pH 3, 50° C., day 1): 0.467 and 0.481 and 0.446
- Percentage of day 0 concentration (Table 3B: pH 3, 50° C., day 2): 103.8%
- concentration by HPLC, Average (Table 3B: pH 3, 50° C., day 2): 0.510
- concentration by HPLC, trials #1-#3 (Table 3B: pH 3, 50° C., day 2): 0.510 and 0.493 and 0.527
- Percentage of day 0 concentration (Table 3B: pH 3, 50° C., day 6): 106.6%
- concentration by HPLC, Average (Table 3B: pH 3, 50° C., day 6): 0.524
- concentration by HPLC, trials #1-#3 (Table 3B: pH 3, 50° C., day 6): 0.527 and 0.491 and 0.553
- Percentage of day 0 concentration (Table 3B: pH 3, 50° C., day 7): 97.3%
- concentration by HPLC, Average (Table 3B: pH 3, 50° C., day 7): 0.478
- concentration by HPLC, trials #1-#3 (Table 3B: pH 3, 50° C., day 7): 0.485 and 0.481 and 0.468
- Percentage of day 0 concentration (Table 3B: pH 3, 50° C., day 8): 103.5%
- concentration by HPLC, Average (Table 3B: pH 3, 50° C., day 8): 0.508
- concentration by HPLC, trials #1-#3 (Table 3B: pH 3, 50° C., day 8): 0.490 and 0.491 and 0.544
- Percentage of day 0 concentration (Table 3B: pH 3, 50° C., day 13): 104.1%
- concentration by HPLC, Average (Table 3B: pH 3, 50° C., day 13): 0.511
- concentration by HPLC, trials #1-#3 (Table 3B: pH 3, 50° C., day 13): 0.519 and 0.498 and 0.517
- Percentage of day 0 concentration (Table 3C: pH 5, 50° C., day 0): 100.0%
- concentration by HPLC, Average (Table 3C: pH 5, 50° C., day 0): 0.487
- concentration by HPLC, trials #1-#3 (Table 3C: pH 5, 50° C., day 0): 0.483 and 0.498 and 0.481
- Percentage of day 0 concentration (Table 3C: pH 5, 50° C., day 3): 103.4%
- concentration by HPLC, Average (Table 3C: pH 5, 50° C., day 3): 0.504
- concentration by HPLC, trials #1-#3 (Table 3C: pH 5, 50° C., day 3): 0.492 and 0.494 and 0.526
- Percentage of day 0 concentration (Table 3C: pH 5, 50° C., day 6): 96.8%
- concentration by HPLC, Average (Table 3C: pH 5, 50° C., day 6): 0.472
- concentration by HPLC, trials #1-#3 (Table 3C: pH 5, 50° C., day 6): 0.459 and 0.475 and 0.481
- Percentage of day 0 concentration (Table 3C: pH 5, 50° C., day 10): 96.9%
- concentration by HPLC, Average (Table 3C: pH 5, 50° C., day 10): 0.472
- concentration by HPLC, trials #1-#3 (Table 3C: pH 5, 50° C., day 10): 0.500 and 0.436 and 0.480
- Percentage of day 0 concentration (Table 3C: pH 5, 50° C., day 13): 95.0%
- concentration by HPLC, Average (Table 3C: pH 5, 50° C., day 13): 0.463
